Laboratory results taken from US20250064093A1, “FERMENTED PH-INDEPENDENT SOLUTION SPOILAGE CONTROL IN FOOD SYSTEMS” (Third Wave Bioactives, LLC, priority 2023, published 2025).

Test system: yeast
Test: Natural spoilage of chicken salad, growth of yeast
Format: cell-based
Details: 500 ppm Nisin
Method: The chicken salad was freshly made and allowed to spoil naturally over time. To prevent the product from being spoiled by Lactic Acid Bacteria (LAB), which can cause an accumulation of lactic acid reducing the pH over time, Nisin preparation (500 ppm) was added. Treatments included a no preservative Control, 500 ppm Nisin, 0.1% Potassium sorbate +500 ppm Nisin (Ps+N), and 1% Bacillus fermentate +500 ppm Nisin (BA+N). Usage rates were in the range of typical inclusion in finished foods.

For nisin, the “yeast counts compared to Bacillus-treated samples” value was “rose much higher”.
